Measured values taken from PMC11768629, “Potential Interaction of Pinocembrin with Drug Transporters and Hepatic Drug-Metabolizing Enzymes” (Pharmaceuticals, 2025).

Key:
hOAT3-MDCK cells = assay: Cell viability assay (MTT) in hOAT3-MDCK cells; format: cell-based, canine; settings: tenofovir 5 µM, 48 h
Procedure: (§1) The hOAT1-MDCK cells and hOAT3-MDCK cells were treated with 1, 10, and 50 μM pinocembrin for 24 h, followed by a measurement of ^3H-PAH and ^3H-estrone sulfate cellular accumulation. […] The inhibitory effect of pinocembrin occurred in a concentration-dependent manner.
(§2) We determined whether the inhibitory effect of pinocembrin on hOAT1 and hOAT3. We studied whether pinocembrin could reduce the renal toxicity of tenofovir, a substrate of hOAT1 and hOAT3 known for inducing renal tubular dysfunction.
(§3) The confluent cells in 96-well plates were treated with pinocembrin for 48 h at 37 °C. After that, the cells were incubated with 0.5 mg/mL MTT solution for four hours. The MTT solution was removed, and DMSO (100 µL) was added to dissolve the crystal formazan. The formazan content was detected at a wavelength of 570 nm using a microplate reader. Cell viability was reported as a percentage of the vehicle-treated cells.

hOAT1-MDCK cells = assay: Cell viability assay (MTT) in hOAT1-MDCK cells; format: cell-based, canine; settings: tenofovir 5 µM, 48 h
Procedure: as §1, §2, §3

With `C[C@H](Cn1cnc2c(N)ncnc21)OCP(=O)(O)O` [tenofovir] the cell viability (hOAT3-MDCK cells) was “did not affect the viability” and the cell viability (hOAT1-MDCK cells) was “significantly reduced the cell viability”.
